Literature values, collected in article PMC10146264, “Safety, Pharmacokinetic and Pharmacodynamic Evaluation of Teverelix for the Treatment of Hormone-Sensitive Advanced Prostate Cancer: Phase 2 Loading-Dose-Finding Studies” (Medicina, 2023).

Experiments:
patients = tested on: patients
Source text: In the United States, cardiovascular disease is the main cause of death for prostate cancer patients, and patients with prostate cancer have a higher risk of death from non-cancer causes than the general population. ADT is associated with a number of cardiometabolic side effects including decreased insulin sensitivity, changes in lipid profile, and an increased risk of thromboembolic and cerebrovascular events. The risk seems to be highest in elderly patients who have had recent cardiovascular events before starting ADT [27]. According to a Scientific Statement issued by the Am ...

[1] = tested on: patients with prostate cancer; details: in vivo

Molecule | Major cardiovascular events, patients (patients; phase 3 randomized trial, within the first 12 months of treatment) [%] | Major cardiovascular events, HR [95% CI] GnRH antagonist vs GnRH agonist (patients; phase 3 trial relugolix vs leuprolide, first 12 months of treatment) | Incidence of injection-site reactions [1]
CONC(=O)Nc1ccc(-c2sc3c(c2CN(C)C)c(=O)n(-c2ccc(OC)nn2)c(=O)n3Cc2c(F)cccc2F)cc1 [relugolix] | 2.9 | 0.46 | –
Degarelix | – | – | ~ 40%
